Where “and” joins values, the source holds several entries; their conditions need not be identical. Identical values can stand only once.
System: ERISS=Conyza species (fleabane, ERISS)
Test: Field trial, post-emergence foliar application, percent weed control visually rated
Type: in vivo
Source text: Treatments consisted of the methyl ester of 4-amino-3-chloro-6-(4-chloro-2-fluoro-3-methoxyphenyl)pyridine-2-carboxylic acid (Cmpd 1) tankmixed with saflufenacil or paraquat. The form of compound of formula (I) was applied on an acid equivalent basis, and saflufenacil and paraquat were applied on an active ingredient basis. Saflufenacil was applied as a commercial formulation containing 700 grams per kilogram (g/kg). Paraquat was applied as a commercial formulation containing 200 g/L.
Field trials were conducted under standard field conditions. Plot sizes varied from 2 meters (m) wide by 5 m long. Treatments were applied with small plot backpack sprayers, using pressurized carbon dioxide (CO2) as propellant. Pressure varied from 40-45 pounds per square inch (PSI), with spray tips typically of a Flat Fan type applying water diluent at 100 liters per hectare (L/ha). Boom size was 2 m in width. Weed sizes varied, but all treatments were applied as post-emergence treatments to weeds from 2 leaf to 2 tiller growth stages varying from 2-15 inches in height. No additional adjuvant was mixed with the treatments applied in the field.
Results in Tables 1 to 2 are field trial results for foliar applied compositions. The values reported are percent (%) control visually rated. The predicted percent (%) weed contol was determined using Colby's equation.
ERISS=Conyza species (fleabane, ERISS) g ae/ha=grams acid equivalent per hectare g ai/ha=grams active ingredient per hectare Mean % weed control=observed value of percent (%) control rated visually Predicted mean % weed control=expected value of percent (%) control as calculated by Colby's equation Cmpd 1=methyl 4-amino-3-chloro-6-(4-chloro-2-fluoro-3-methoxyphenyl)pyridine-2-carboxylate, halauxifen-methyl, or ARYLEX® DAA=days after application

| SMILES | Mean % weed control (Cmpd 1 alone, 5 g ae/ha, 17DAA) [%] | Mean % weed control (Cmpd 1 alone, 5 g ae/ha, 28DAA) | Mean % weed control (Cmpd 1 alone, 5 g ae/ha, 43DAA) | Mean % weed control (Saflufenacil alone, 49 g ai/ha, 17DAA) [%] | Mean % weed control (Saflufenacil alone, 49 g ai/ha, 28DAA) [%] |
| --- | --- | --- | --- | --- | --- |
| COC(=O)c1nc(-c2ccc(Cl)c(OC)c2F)cc(N)c1Cl [Cmpd 1, methyl 4-amino-3-chloro-6-(4-chloro-2-fluoro-3-methoxyphenyl)pyridine-2-carboxylate] | 33.75 | 33.75% and 46.25% | 40% and 57.5% | – | – |
| CC(C)N(C)S(=O)(=O)NC(=O)c1cc(-n2c(=O)cc(C(F)(F)F)n(C)c2=O)c(F)cc1Cl [Saflufenacil, 2-chloro-5-[3,6-dihydro-3-methyl-2,6-dioxo-4-(trifluoromethyl)-1(2H)-pyrimidinyl]-4-fluoro-N-[[methyl(1-methylethyl)amino]sulfonyl]benzamide, reference compound] | – | – | – | 66.25 | 66.25 |
